The text below walks through data of ChEMBL document CHEMBL3507680, “University of Dundee, Gates Library screen for HepG2 cell viability”.

The data set is described as follows: Human HepG2 cell viability assay in 384 well format. The format is toxicity, cell-based. Set-up: dose 125 nL, time 70.5 hour; concentration not given beside the values. The note with it: HepG2 cells, read-out: Inhibition.
Take `CC(=O)N1CCC(C)(c2nc(C)no2)CC1`: the cytotoxicity at 70.5 h was -5%.

On to `Cc1cccc(O[C@H]2COCCN(C3CCC3)C2)n1`, for which the cytotoxicity at 70.5 h was -6.06%.

Turning to `O=C1CN(CC2CC2)Cc2nc(NCc3ccccc3)sc21`, the cytotoxicity at 70.5 h came to 20.7%.

`CCC(C(=O)NCc1ccncc1)N(c1ccccc1)S(C)(=O)=O` (stereo unspecified): the cytotoxicity at 70.5 h was -3.1%.

For the molecule `CC(C)c1ncc(Cl)c(C(=O)N2CCN3CCCCC3C2)n1` (stereo unspecified), the cytotoxicity at 70.5 h came out at 36.2%.

Take `CS(=O)(=O)CCNCc1ccc(OCc2cscn2)cc1`: the cytotoxicity at 70.5 h is -3.66%.

Turning to `O=C(c1cccc2ccnn12)N1CCC[C@H]1CN1CCCC1`, the cytotoxicity at 70.5 h amounted to 6.92%.

Take `Cc1ccccc1CNC(=O)Cn1ncc2c1c(C)nn2C`: the cytotoxicity at 70.5 h is -9.91%.

In the case of `CN1[C@H](Cn2cncn2)C[C@@H]2CN(Cc3cccc(C#N)c3)CC[C@@H]21`, the cytotoxicity at 70.5 h is -6.46%.

With `O=C(Nc1nncs1)NC1CCOc2ccccc21` (stereo unspecified), the cytotoxicity at 70.5 h turned out to be 3.46%.

On to `O=C(NCc1ccco1)[C@H]1CC[C@@H]2[C@@H](CCN2Cc2nccs2)O1`, for which the cytotoxicity at 70.5 h was -4.65%.

In the case of `COc1c(C2CCCN2Cc2noc(C)n2)c(C)nn1C` (stereo unspecified), the cytotoxicity at 70.5 h came out at 44.7%.

As to `CC(=O)Nc1ccc(OCc2noc(C(=O)N3CCCCC3)n2)cc1`, the cytotoxicity at 70.5 h was -18.1%.

On to `Cn1c(=O)ccn(CC(=O)NCC2Cc3ccccc3O2)c1=O` (stereo unspecified), for which the cytotoxicity at 70.5 h was -0.993%.

On to `OC(CN(Cc1ccccc1)Cc1cscn1)c1cccs1` (stereo unspecified), for which the cytotoxicity at 70.5 h was -2.62%.

For `CCC[C@H]1CN(CCS(C)(=O)=O)C[C@@H]1NC(=O)c1ccn(C)n1`, the cytotoxicity at 70.5 h was -4.29%.

For the molecule `Cc1ccoc1C(=O)N1C[C@@H]2COC[C@]2(CNS(C)(=O)=O)C1`, the cytotoxicity at 70.5 h was -3.33%.

Consider `Cc1cc(C(=O)N(C)C2CCN(C)C2)c2ccc(F)cc2n1` (stereo unspecified), for which the cytotoxicity at 70.5 h was 23.7%.

With `CN(C)CCN1CC2(CCCN(c3ccc(Cl)cn3)C2)CCC1=O` (stereo unspecified), the cytotoxicity at 70.5 h is 3.01%.

Take `O=C1CC(c2cccs2)Cc2[nH]c(=O)ccc21` (stereo unspecified): the cytotoxicity at 70.5 h is -7.47%.

As to `COCCNC(=O)Nc1cccc2c1CCN(S(C)(=O)=O)C2`, the cytotoxicity at 70.5 h was -0.282%.

`O=C(NCc1cccnc1)N1CCc2ncnc(C3CC3)c2CC1`: the cytotoxicity at 70.5 h came to 5.6%.

In the case of `c1ccc(-n2nnnc2CNCc2ccc3c(c2)OCCO3)cc1`, the cytotoxicity at 70.5 h is -8.49%.

As to `COc1ccc(CNCCn2c(C)nc3ccccc32)cc1O`, the cytotoxicity at 70.5 h was -8.82%.

In the case of `Cc1cc(NC(=O)NCCc2cccs2)n(C)n1`, the cytotoxicity at 70.5 h is -1.92%.

`O=C(CN1CCC(c2ccnn2CCO)CC1)NCc1ccco1`: the cytotoxicity at 70.5 h is 11.2%.

`Cc1ccc(NC(=O)CNc2cccc3c2CCCC3)c(Br)c1`: the cytotoxicity at 70.5 h is -8.9%.

With `CNC(=O)[C@@H]1C[C@H](N)CN1S(=O)(=O)c1cc(Cl)cc(Cl)c1O`, the cytotoxicity at 70.5 h was -6.21%.

Consider `CN(C)C(=O)N1CCn2c(Cn3cccn3)cnc2C1`, for which the cytotoxicity at 70.5 h came to 1.93%.

For the molecule `CCn1cc(CN2CCCN(C3Cc4ccccc4C3)CC2)c(C)n1`, the cytotoxicity at 70.5 h was determined as 24.3%.

`CNC(=O)c1nc(COc2ccc3c(c2)OCO3)no1`: the cytotoxicity at 70.5 h was -9.82%.

With `COCCN1CCC2(CCN(Cc3nccs3)CC2)C1=O`, the cytotoxicity at 70.5 h was -8.69%.

For `Cn1cc(CN2CC[C@@H]3[C@@H](CO[C@H]3CNC(=O)c3ccco3)C2)cn1`, the cytotoxicity at 70.5 h is -3.28%.

With `CCn1nnc2c1C(COCCN(C)C)CN(c1nncs1)C2` (stereo unspecified), the cytotoxicity at 70.5 h was 31.1%.

Regarding `Cc1cc(C)nc(NCCCC(=O)NCCn2ccc3ccccc32)n1`, the cytotoxicity at 70.5 h is -30.2%.

For `O=C(NCC1CCCCO1)c1cc(Cn2cnc3ccccc32)[nH]n1` (stereo unspecified), the cytotoxicity at 70.5 h is -6.38%.

With `CCNc1cc2c(nn1)CCN(C(=O)c1ccnc(-n3ccnc3)c1)C2`, the cytotoxicity at 70.5 h was -6.16%.

For `Cc1nc(CN2CCC(C(=O)O)(n3ccc(-c4ccco4)n3)CC2)co1`, the cytotoxicity at 70.5 h was -7.1%.

As to `Cc1cccc(CN2C[C@H]3OC(=O)N(CCCN4CCOCC4)[C@H]3C2)n1`, the cytotoxicity at 70.5 h was -10.1%.

For the molecule `COC(=O)c1cccc(C(=O)NCc2ccc(C)o2)n1`, the cytotoxicity at 70.5 h is -18.5%.

In the case of `Cc1ccc(-c2ccnc(NC(C)c3n[nH]c(C)n3)n2)c(C)n1` (stereo unspecified), the cytotoxicity at 70.5 h was -9.42%.

For `CC(C)CN1C(=O)C2(CCN(Cc3cccs3)C2)c2ccccc21` (stereo unspecified), the cytotoxicity at 70.5 h was -16.4%.

In the case of `C=C(C)Cn1cc(C(N)=O)nc1C1CC1`, the cytotoxicity at 70.5 h came to 20.9%.

For the molecule `Cc1c(Br)cccc1NC(=O)N(C)CCO`, the cytotoxicity at 70.5 h was -14.7%.

Turning to `CN(C)Cc1csc(-c2nccn2Cc2ccsc2)c1`, the cytotoxicity at 70.5 h is 3.09%.

Consider `CCC(C(=O)N1CCCSCC1)N1CCCC1=O` (stereo unspecified), for which the cytotoxicity at 70.5 h is 12.1%.

Turning to `Cn1cccc(NC(=O)NCc2cccc(CO)c2)c1=O`, the cytotoxicity at 70.5 h was determined as 7.6%.

`CCC[C@@H]1CN(S(=O)(=O)c2ccc(OC)c(OC)c2)C[C@H]1NC(C)=O`: the cytotoxicity at 70.5 h was found to be 6.19%.

Turning to `CC(NCc1ccc(C(C)(C)C)cc1)c1ccc(S(C)(=O)=O)cc1` (stereo unspecified), the cytotoxicity at 70.5 h was -8.09%.

As for `CC(C)c1cc(N2CCC(NS(C)(=O)=O)C2)nc(C(C)C)n1` (stereo unspecified), the cytotoxicity at 70.5 h is -10.9%.

For `Cc1cccc(CN2C[C@@H](C)[C@@]3(CCN(CC(=O)N(C)C)C3=O)C2)c1`, the cytotoxicity at 70.5 h was -10%.

For the molecule `Cc1ncsc1CN1CCC2(CC1)CC(=O)N(Cc1ccc(Cl)cc1)C2`, the cytotoxicity at 70.5 h is -3.74%.

For the molecule `COCC1CN(C(=O)c2ccccn2)Cc2nccn2C1` (stereo unspecified), the cytotoxicity at 70.5 h is -11.1%.

In the case of `CSc1ccc(C(=O)C2CCCN(C(=O)CCn3cncn3)C2)cc1` (stereo unspecified), the cytotoxicity at 70.5 h was -16.6%.

Regarding `CN(Cc1ccc(OC(F)F)cc1)C(=O)CS(=O)(=O)c1ccc(Cl)cc1`, the cytotoxicity at 70.5 h was -9.26%.

For the molecule `CCOc1ccccc1C(CC(=O)Nc1nc(C)cs1)NC(C)=O` (stereo unspecified), the cytotoxicity at 70.5 h was -8.99%.

As for `O=C(C1CC(=O)N(c2n[nH]c3cc(Br)ccc23)C1)N1CCOCC1` (stereo unspecified), the cytotoxicity at 70.5 h was -11.9%.

As for `CCC(C)C(=O)N(CC(=O)OC)c1cccc(C)n1` (stereo unspecified), the cytotoxicity at 70.5 h turned out to be 2.47%.

`CCOC(=O)C1CN(S(C)(=O)=O)Cc2ncn(CC)c21` (stereo unspecified): the cytotoxicity at 70.5 h is -0.182%.

On to `Cn1cc(C2CCCN2C(=O)Cn2ccc3ccc(Cl)cc32)cn1` (stereo unspecified), for which the cytotoxicity at 70.5 h worked out at 12.2%.

In the case of `Cc1nc(N2CCCC2)ncc1-c1cc(O)nc(N2CCN(C)CC2)n1`, the cytotoxicity at 70.5 h is -2.96%.

With `CCc1cc(O)nc(C2CCCN2C(=O)c2cc(CC)on2)n1` (stereo unspecified), the cytotoxicity at 70.5 h is -5.67%.

Consider `Cn1c2c(ccc1=O)CC(Nc1ncc(F)cn1)CC2` (stereo unspecified), for which the cytotoxicity at 70.5 h was -11.5%.

In the case of `COc1ccc(CNC(=O)c2ccc(Cl)cc2F)cc1C(=O)O`, the cytotoxicity at 70.5 h was -4.39%.

For the molecule `CCCNC(=O)NC(=O)CN1CCN(Cc2nccn2CC)CC1`, the cytotoxicity at 70.5 h was -9.22%.

Take `CCSc1cc(C(=O)NCCNC(=O)N(C)C)ccn1`: the cytotoxicity at 70.5 h is -76.6%.

`Cn1c(=O)c2cc(C(=O)NCCOc3ccccc3)ccc2n(C)c1=O`: the cytotoxicity at 70.5 h is 24.3%.

Regarding `O=C(c1cscn1)N1C[C@H](OCc2cccnc2)[C@H]2COC[C@H]21`, the cytotoxicity at 70.5 h is -5.24%.

Consider `COc1nn(C)c2c1CCCN(S(=O)(=O)c1cccs1)C2`, for which the cytotoxicity at 70.5 h turned out to be 12.6%.

For the molecule `N#CC1(NC(=O)COc2cc(Cl)cc(Cl)c2)CCOCC1`, the cytotoxicity at 70.5 h was -5.72%.

As for `Cc1nn(C)c(Cl)c1C1CCCN1C(=O)c1cc(Cl)c[nH]1` (stereo unspecified), the cytotoxicity at 70.5 h is -17.6%.
